Test results reported in patent publication US6316194A, “Methods and kits for discovery of RNA-binding antimicrobials” (Ribotargets, priority 1999, dated 2001).

Test system: DABCYL-A site RNA (25 nucleotide model of the 16S rRNA A site, SEQ ID No. 1)
Assay: Competitive inhibition of paramomycin-TAMRA binding to DABCYL-A site RNA by unlabelled antibiotic (FRET, 96-well plate reader)
Conditions: 25 nM paramomycin-TAMRA
Experimental: (§1) Binding of paramomycin-TAMRA to A site RNA was measured in a fluorescent plate reader. Measurements were made in a 96-well plate reader (Wallac victor) with a fixed wavelength of 544 nm and emission at 590 nm. I0 was determined by an initial measurement of a 95 μL solution of 25 nM paramomycin-TAMRA in the presence of 50 mM Tris-HCl pH7.5, 80 mM KCl, 0.1% DMSO 0.00007% Triton X-100 and 0.5 ug/mL BSA presence of 10 μM Neomycin. I (the final measurement) was then measured following the addition of 5 μL of a 20×DABCYL-A site RNA stock solution (corresponding to the amounts shown in the figure).
as §1, with “of 15” for “of 10”, “in FIG. 9). […]” for “in the figure).”

Compound	Inhibition of paramomycin-TAMRA to A site binding (15 μM Paramomycin (heading))	Inhibition of paramomycin-TAMRA to A site binding (10 μM Neomycin)
NC[C@@H]1O[C@H](O[C@H]2[C@@H](O)[C@H](O[C@@H]3[C@@H](O)[C@H](N)C[C@H](N)[C@H]3O[C@H]3O[C@H](CO)[C@@H](O)[C@H](O)[C@H]3N)O[C@@H]2CO)[C@H](N)[C@@H](O)[C@@H]1O [paramomycin]	competitive inhibitor	
Neomycin		a reduction in fluorescence in the presence of the neomycin competitor was observed
